Data as given in patent publication US20260285850A1, “SUBSTITUTED OXAZOLIDINONES AND IMIDAZOLINONES AS HERBICIDES” (FMC CORPORATION, priority 2023, published 2026).

Tests used:
Format in all cases: in vivo
[1] = system: corn (Zea mays); assay: Test A preemergence soil spray, visual injury rating 0-100; details: 10 days, 0 = no effect, 100 = complete control
Text: (§1) Seeds of plant species selected from barnyardgrass (Echinochloa crus-galli), blackgrass (Alopecurus myosuroides), corn (Zea mays), foxtail, giant (giant foxtail, Setaria faberi), green foxtail (Setaria viridis), goosegrass (Eleusine indica), kochia (Bassia scoparia), oat, wild (wild oat, Avena fatua), palmer (palmer amaranth, palmer pigweed, Amaranthus palmeri), ragweed (common ragweed, Ambrosia artemisiifolia), ryegrass, Italian (italian ryegrass, Lolium multiflorum), soybean (Glycine max) and wheat (Triticum aestivum) were planted into a blend of loam soil and sand and treated preemergence with a directed soil spray using test chemicals formulated in a non-phytotoxic solvent mixture which included a surfactant.
(§2) At the same time, plants selected from these crops and weed species and also galium (catchweed bedstraw, Galium aparine) and horseweed (Erigeron canadensis) were planted in pots containing the same blend of loam soil and sand and treated with postemergence applications of test chemicals formulated in the same manner. Plants ranged in height from 2 to 10 cm and were in the one- to two-leaf stage for the postemergence treatment. Treated plants and untreated controls were maintained in a greenhouse for 10 days, after which time all treated plants were compared to untreated controls and visually evaluated for injury. Plant response ratings, summarized in Table A, are based on a 0 to 100 scale where 0 is no effect and 100 is complete control. A dash (-) response means no test result.

[2] = system: palmer (palmer amaranth, palmer pigweed, Amaranthus palmeri); assay: as above; details: 10 days, 0 = no effect, 100 = complete control
Text: as §1, §2

[3] = system: soybean (Glycine max); assay: as above; details: 10 days, 0 = no effect, 100 = complete control
Text: as §1, §2

[4] = system: kochia (Bassia scoparia); assay: as above; details: 10 days, 0 = no effect, 100 = complete control
Text: as §1, §2

[5] = system: barnyardgrass (Echinochloa crus-galli); assay: as above; details: 10 days, 0 = no effect, 100 = complete control
Text: as §1, §2

[6] = system: ragweed (common ragweed, Ambrosia artemisiifolia); assay: as above; details: 10 days, 0 = no effect, 100 = complete control
Text: as §1, §2

[7] = system: blackgrass (Alopecurus myosuroides); assay: as above; details: 10 days, 0 = no effect, 100 = complete control
Text: as §1, §2

[8] = system: ryegrass, Italian (italian ryegrass, Lolium multiflorum); assay: as above; details: 10 days, 0 = no effect, 100 = complete control
Text: as §1, §2

[9] = system: oat, wild (wild oat, Avena fatua); assay: as above; details: 10 days, 0 = no effect, 100 = complete control
Text: as §1, §2

[10] = system: wheat (Triticum aestivum); assay: as above; details: 10 days, 0 = no effect, 100 = complete control
Text: as §1, §2

[11] = system: corn (Zea mays); assay: Test A postemergence application, visual injury rating 0-100; details: Postemergence
Text: as §1, §2

[12] = system: palmer (palmer amaranth, palmer pigweed, Amaranthus palmeri); assay: as above; details: Postemergence
Text: as §1, §2

[13] = system: soybean (Glycine max); assay: as above; details: Postemergence
Text: as §1, §2

[14] = system: kochia (Bassia scoparia); assay: as above; details: Postemergence
Text: as §1, §2

[15] = system: barnyardgrass (Echinochloa crus-galli); assay: as above; details: Postemergence
Text: as §1, §2

[16] = system: ragweed (common ragweed, Ambrosia artemisiifolia); assay: as above; details: Postemergence
Text: as §1, §2

[17] = system: blackgrass (Alopecurus myosuroides); assay: as above; details: Postemergence
Text: as §1, §2

[18] = system: ryegrass, Italian (italian ryegrass, Lolium multiflorum); assay: as above; details: Postemergence
Text: as §1, §2

[19] = system: oat, wild (wild oat, Avena fatua); assay: as above; details: Postemergence
Text: as §1, §2

[20] = system: wheat (Triticum aestivum); assay: as above; details: Postemergence
Text: as §1, §2

[21] = system: horseweed (Erigeron canadensis); assay: as above; details: Postemergence
Text: as §1, §2

[22] = system: galium (catchweed bedstraw, Galium aparine); assay: as above; details: Postemergence
Text: as §1, §2

[23] = 31 g ai/ha, greenhouse 10 days, 0 no effect, 100 complete control
[24] = 125 g ai/ha, 10 days, 0 is no effect, 100 is complete control

## CC1(C(=O)NC2CC=C(C(=O)NS(=O)(=O)C3CC3)C2)CN(c2cc(Cl)cc(Cl)c2)C(=O)O1 (centres unmarked) [Compound 75]
[1]; 31 g ai/ha
  Corn plant response rating (0-100): 0
[1]; 125 g ai/ha
  Corn plant response rating (0 to 100 scale): 0
[2]; 31 g ai/ha
  Amaranth, Palmer plant response rating (0-100): 50
[2]; 125 g ai/ha
  Amaranth, Palmer plant response rating (0 to 100 scale): 90
[3]; 31 g ai/ha
  Soybean plant response rating (0-100): 30
[3]; 125 g ai/ha
  Soybean plant response rating (0 to 100 scale): 10
[4]; 31 g ai/ha
  Kochia plant response rating (0-100): 50
[4]; 125 g ai/ha
  Kochia plant response rating (0 to 100 scale): 90
[5]; 31 g ai/ha
  Barnyardgrass plant response rating (0-100): 0
[5]; 125 g ai/ha
  Barnyardgrass plant response rating (0 to 100 scale): 80
[6]; 31 g ai/ha
  Ragweed plant response rating (0-100): 10
[6]; 125 g ai/ha
  Ragweed plant response rating (0 to 100 scale): 0
[7]; 31 g ai/ha
  Blackgrass plant response rating (0-100): 20
[7]; 125 g ai/ha
  Blackgrass plant response rating (0 to 100 scale): 40
[8]; 31 g ai/ha
  Ryegrass, Italian plant response rating (0-100): 10
[8]; 125 g ai/ha
  Ryegrass, Italian plant response rating (0 to 100 scale): 70
[9]; 31 g ai/ha
  Oat, Wild plant response rating (0-100): 0
[9]; 125 g ai/ha
  Oat, Wild plant response rating (0 to 100 scale): 0
[10]; 31 g ai/ha
  Wheat plant response rating (0-100): 0
[10]; 125 g ai/ha
  Wheat plant response rating (0 to 100 scale): 40
[11]; [23]
  Corn plant response rating (0 to 100 scale): 70
[11]; [24]
  Corn plant response rating (0 to 100 scale): 90
[12]; [23]
  Amaranth, Palmer / Pigweed, Palmer plant response rating (0 to 100 scale): 70
[12]; [24]
  Amaranth, Palmer / Pigweed, Palmer plant response rating (0 to 100 scale): 90
[13]; [23]
  Soybean plant response rating (0 to 100 scale): 20
[13]; [24]
  Soybean plant response rating (0 to 100 scale): 50
[14]; [23]
  Kochia plant response rating (0 to 100 scale): 80
[14]; [24]
  Kochia plant response rating (0 to 100 scale): 80
[15]; [23]
  Barnyardgrass plant response rating (0 to 100 scale): 80
[15]; [24]
  Barnyardgrass plant response rating (0 to 100 scale): 90
[16]; [23]
  Ragweed plant response rating (0 to 100 scale): 0
[16]; [24]
  Ragweed plant response rating (0 to 100 scale): 60
[17]; [23]
  Blackgrass plant response rating (0 to 100 scale): 0
[17]; [24]
  Blackgrass plant response rating (0 to 100 scale): 80
[18]; [23]
  Ryegrass, Italian plant response rating (0 to 100 scale): 50
[18]; [24]
  Ryegrass, Italian plant response rating (0 to 100 scale): 70
[19]; [23]
  Oat, Wild plant response rating (0 to 100 scale): 10
[19]; [24]
  Oat, Wild plant response rating (0 to 100 scale): 90
[20]; [23]
  Wheat plant response rating (0 to 100 scale): 70
[20]; [24]
  Wheat plant response rating (0 to 100 scale): 80
[21]; [23]
  Horseweed plant response rating (0 to 100 scale): 40
[21]; [24]
  Horseweed plant response rating (0 to 100 scale): 70
[22]; [23]
  Galium plant response rating (0 to 100 scale): 40
[22]; [24]
  Galium plant response rating (0 to 100 scale): 80
